Test results reported in ChEMBL document CHEMBL1148480, “Structure-activity studies of orexin a and orexin B at the human orexin 1 and orexin 2 receptors led to orexin 2 receptor selective and orexin 1 receptor preferring ligands” (J Med Chem, 2004).
Residues, ends and D or L forms follow the SMILES beside them.

How the values were obtained:
[1] = target: T1, Orexin receptor type 2 (Homo sapiens, UniProt O43614); assay: Effective agonist concentration to the human Orexin receptor type 2 was determined using the Xlfit program; type: functional
T1 sequence (O43614 whole entry): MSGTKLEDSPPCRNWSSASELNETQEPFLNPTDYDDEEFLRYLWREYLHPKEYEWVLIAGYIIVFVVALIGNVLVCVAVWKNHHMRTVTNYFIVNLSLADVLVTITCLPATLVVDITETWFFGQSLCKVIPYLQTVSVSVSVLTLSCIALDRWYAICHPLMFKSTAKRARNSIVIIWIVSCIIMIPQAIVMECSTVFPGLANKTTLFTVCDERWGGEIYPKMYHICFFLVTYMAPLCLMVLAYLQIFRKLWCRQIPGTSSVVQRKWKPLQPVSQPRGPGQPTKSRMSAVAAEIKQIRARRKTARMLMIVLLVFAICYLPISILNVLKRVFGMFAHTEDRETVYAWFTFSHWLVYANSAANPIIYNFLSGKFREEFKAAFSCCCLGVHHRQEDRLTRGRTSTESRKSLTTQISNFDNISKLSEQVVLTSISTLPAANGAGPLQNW

[2] = target: T2, Orexin/Hypocretin receptor type 1 (Homo sapiens, UniProt O43613); assay: Effective agonist concentration to human orexin receptor type 1 determined using the Xlfit program; type: functional
T2 sequence (O43613 whole entry): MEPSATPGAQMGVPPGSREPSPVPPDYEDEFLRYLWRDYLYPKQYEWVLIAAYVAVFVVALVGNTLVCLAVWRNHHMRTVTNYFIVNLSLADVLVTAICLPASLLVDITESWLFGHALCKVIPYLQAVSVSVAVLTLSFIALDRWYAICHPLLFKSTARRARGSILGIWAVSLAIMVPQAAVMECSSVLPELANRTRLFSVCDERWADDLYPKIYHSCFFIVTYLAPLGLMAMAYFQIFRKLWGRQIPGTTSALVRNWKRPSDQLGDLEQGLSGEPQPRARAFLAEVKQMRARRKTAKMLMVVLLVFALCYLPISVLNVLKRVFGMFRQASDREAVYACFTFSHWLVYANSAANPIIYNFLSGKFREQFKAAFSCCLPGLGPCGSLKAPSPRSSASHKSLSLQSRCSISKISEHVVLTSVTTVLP

[3] = Ratio of orexin-1 receptor to orexin-2 receptor in human

Structure (SMILES)	EC50 [1]	EC50 [2]	Ratio [3]
CC[C@H](C)[C@H](NC(=O)CNC(=O)[C@H](C)NC(=O)[C@H](C)NC(=O)[C@H](Cc1c[nH]cn1)NC(=O)[C@H](CC(N)=O)NC(=O)CNC(=O)[C@H](CO)NC(=O)[C@H](C)NC(=O)[C@H](CCC(N)=O)NC(=O)[C@H](CC(C)C)NC(=O)[C@H](CC(C)C)NC(=O)[C@H](CCCN=C(N)N)NC(=O)[C@H](CCC(N)=O)NC(=O)[C@H](CC(C)C)NC(=O)[C@H](CCCN=C(N)N)NC(=O)CNC(=O)[C@H](CCC(N)=O)NC(=O)[C@H](CC(C)C)NC(=O)CN)C(=O)N1CCC[C@H]1C(=O)N[C@H](C(=O)N[C@@H](CCSC)C(=O)O)[C@@H](C)O (H-GLQGRLQRLLQASGNHAAGIPTM-OH)	0.63 µM	8.77 µM	13.9
CC[C@H](C)[C@H](NC(=O)CNC(=O)[C@H](C)NC(=O)[C@H](C)NC(=O)[C@H](Cc1c[nH]cn1)NC(=O)[C@H](CC(N)=O)NC(=O)CNC(=O)[C@H](CO)NC(=O)[C@H](C)NC(=O)[C@H](CCC(N)=O)NC(=O)[C@H](CC(C)C)NC(=O)[C@H](CC(C)C)NC(=O)[C@H](CCCN=C(N)N)NC(=O)[C@H](CCC(N)=O)NC(=O)[C@H](CC(C)C)NC(=O)[C@H](CCCN=C(N)N)NC(=O)CNC(=O)[C@H](CCC(N)=O)NC(=O)[C@H](CC(C)C)NC(=O)CN)C(=O)N[C@@H](CC(C)C)C(=O)N[C@H](C(=O)N[C@@H](C)C(=O)O)[C@@H](C)O (H-GLQGRLQRLLQASGNHAAGILTA-OH)	0.75 µM	4.84 µM	6.5
CC[C@H](C)[C@H](NC(=O)CNC(=O)[C@H](C)NC(=O)[C@H](C)NC(=O)[C@H](Cc1c[nH]cn1)NC(=O)[C@H](CC(N)=O)NC(=O)CNC(=O)[C@H](CO)NC(=O)[C@H](C)NC(=O)[C@@H]1CCCN1C(=O)[C@H](CC(C)C)NC(=O)[C@H](CC(C)C)NC(=O)[C@H](CCCN=C(N)N)NC(=O)[C@H](CCC(N)=O)NC(=O)[C@H](CC(C)C)NC(=O)[C@H](CCCN=C(N)N)NC(=O)CNC(=O)[C@H](CCC(N)=O)NC(=O)[C@H](CC(C)C)NC(=O)CN)C(=O)N[C@@H](CC(C)C)C(=O)N[C@H](C(=O)N[C@@H](CCSC)C(=O)O)[C@@H](C)O (H-GLQGRLQRLLPASGNHAAGILTM-OH)	2.48 µM	9.49 µM	3.8
CC[C@H](C)[C@H](NC(=O)CNC(=O)[C@H](C)NC(=O)[C@H](C)NC(=O)[C@H](Cc1c[nH]cn1)NC(=O)[C@H](CC(N)=O)NC(=O)CNC(=O)[C@H](CO)NC(=O)[C@H](C)NC(=O)[C@H](CCC(N)=O)NC(=O)[C@H](CC(C)C)NC(=O)[C@H](CC(C)C)NC(=O)[C@H](CCCN=C(N)N)NC(=O)[C@H](CCC(N)=O)NC(=O)[C@H](CC(C)C)NC(=O)[C@H](CCCN=C(N)N)NC(=O)CNC(=O)[C@H](CCC(N)=O)NC(=O)[C@H](CC(C)C)NC(=O)CN)C(=O)N[C@@H](CC(C)C)C(=O)N[C@H](C(=O)N1CCC[C@H]1C(=O)O)[C@@H](C)O (H-GLQGRLQRLLQASGNHAAGILTP-OH)	3.63 µM	> 1000 µM	> 275
CC[C@H](C)[C@H](NC(=O)CNC(=O)[C@H](C)NC(=O)[C@H](C)NC(=O)[C@H](Cc1c[nH]cn1)NC(=O)[C@H](CC(N)=O)NC(=O)CNC(=O)[C@H](CO)NC(=O)[C@H](C)NC(=O)[C@H](CCC(N)=O)NC(=O)[C@@H]1CCCN1C(=O)[C@H](CC(C)C)NC(=O)[C@H](CCCN=C(N)N)NC(=O)[C@H](CCC(N)=O)NC(=O)[C@H](CC(C)C)NC(=O)[C@H](CCCN=C(N)N)NC(=O)CNC(=O)[C@H](CCC(N)=O)NC(=O)[C@H](CC(C)C)NC(=O)CN)C(=O)N[C@@H](CC(C)C)C(=O)N[C@H](C(=O)N[C@@H](CCSC)C(=O)O)[C@@H](C)O (H-GLQGRLQRLPQASGNHAAGILTM-OH)	20.1 µM	> 1000 µM	> 50
CC[C@H](C)[C@H](NC(=O)[C@@H]1CCCN1C(=O)[C@H](C)NC(=O)[C@H](C)NC(=O)[C@H](Cc1c[nH]cn1)NC(=O)[C@H](CC(N)=O)NC(=O)CNC(=O)[C@H](CO)NC(=O)[C@H](C)NC(=O)[C@H](CCC(N)=O)NC(=O)[C@H](CC(C)C)NC(=O)[C@H](CC(C)C)NC(=O)[C@H](CCCN=C(N)N)NC(=O)[C@H](CCC(N)=O)NC(=O)[C@H](CC(C)C)NC(=O)[C@H](CCCN=C(N)N)NC(=O)CNC(=O)[C@H](CCC(N)=O)NC(=O)[C@H](CC(C)C)NC(=O)CN)C(=O)N[C@@H](CC(C)C)C(=O)N[C@H](C(=O)N[C@@H](CCSC)C(=O)O)[C@@H](C)O (H-GLQGRLQRLLQASGNHAAPILTM-OH)	9.43 µM	> 1000 µM	> 105
CC[C@H](C)[C@H](NC(=O)CNC(=O)[C@H](C)NC(=O)[C@H](C)NC(=O)[C@H](Cc1c[nH]cn1)NC(=O)[C@H](CC(N)=O)NC(=O)CNC(=O)[C@H](C)NC(=O)CNC(=O)[C@H](Cc1c[nH]cn1)NC(=O)[C@H](CC(C)C)NC(=O)[C@H](CC(C)C)NC(=O)[C@H](CCC(=O)O)NC(=O)[C@H](Cc1ccc(O)cc1)NC(=O)[C@H](CC(C)C)NC(=O)[C@H](CCCN=C(N)N)NC(=O)[C@H](CS)NC(=O)[C@H](CO)NC(=O)[C@H](CS)NC(=O)[C@@H](NC(=O)[C@H](CCCCN)NC(=O)[C@H](CCC(N)=O)NC(=O)[C@H](CCCN=C(N)N)NC(=O)[C@H](CS)NC(=O)[C@H](CS)NC(=O)[C@H](CC(=O)O)NC(=O)[C@@H]1CCCN1C(=O)[C@H](CC(C)C)NC(=O)[C@@H]1CCCN1)[C@@H](C)O)C(=O)N[C@@H](CC(C)C)C(=O)N[C@H](C(=O)N[C@@H](CC(C)C)C(=O)O)[C@@H](C)O	2.51 µM	0.86 µM	0.3
CC[C@H](C)[C@H](NC(=O)CNC(=O)[C@H](C)NC(=O)[C@H](C)NC(=O)[C@H](Cc1c[nH]cn1)NC(=O)[C@H](CC(N)=O)NC(=O)CNC(=O)[C@H](CO)NC(=O)[C@H](C)NC(=O)[C@H](CCC(N)=O)NC(=O)[C@H](CC(C)C)NC(=O)[C@H](CC(C)C)NC(=O)[C@H](CCCN=C(N)N)NC(=O)[C@H](CCC(N)=O)NC(=O)[C@H](CC(C)C)NC(=O)[C@H](CCCN=C(N)N)NC(=O)CNC(=O)[C@H](CCC(N)=O)NC(=O)[C@H](CC(C)C)NC(=O)[C@@H]1CCCN1)C(=O)N[C@@H](CC(C)C)C(=O)N[C@H](C(=O)N[C@@H](CCSC)C(=O)O)[C@@H](C)O (H-PLQGRLQRLLQASGNHAAGILTM-OH)	0.49 µM	8.28 µM	16.9
CC[C@H](C)[C@H](NC(=O)CNC(=O)[C@H](C)NC(=O)[C@H](C)NC(=O)[C@H](Cc1c[nH]cn1)NC(=O)[C@H](CC(N)=O)NC(=O)CNC(=O)[C@H](CO)NC(=O)[C@H](C)NC(=O)[C@H](CCC(N)=O)NC(=O)[C@H](CC(C)C)NC(=O)[C@H](C)NC(=O)[C@H](CCCN=C(N)N)NC(=O)[C@H](CCC(N)=O)NC(=O)[C@H](CC(C)C)NC(=O)[C@H](CCCN=C(N)N)NC(=O)CNC(=O)[C@H](CCC(N)=O)NC(=O)[C@H](CC(C)C)NC(=O)CN)C(=O)N[C@@H](CC(C)C)C(=O)N[C@H](C(=O)N[C@@H](CCSC)C(=O)O)[C@@H](C)O (H-GLQGRLQRALQASGNHAAGILTM-OH)	2.28 µM	5.89 µM	2.6
